Experimental data published in patent publication US20230102554A1 (GB002, INC., priority 2019, published 2023).
pIC50: −log10 of the molar value.

Tests used:
[1] = biological target: T1, Human PDGFRα, cytoplasmic domain (GST-PDGFRα) (Homo sapiens, UniProt P16234); assay: Human PDGFRα biochemical inhibition assay (off-chip Mobility Shift Assay)
T1 construct: made in house

[2] = biological target: T2, Human PDGFRβ, cytoplasmic domain (GST-PDGFRβ) (Homo sapiens, UniProt P09619); assay: Human PDGFRβ biochemical inhibition assay (off-chip Mobility Shift Assay)
T2 construct: made in house
Procedure, shortened: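 GST-tagged cytoplasmic domain (aa 557-1106) from baculovirus was incubated 1 h at room temperature with compound, CSKtide, ATP at Km and Mg²⁺ in HEPES buffer, pH 7.5. Phosphorylated and unphosphorylated peptide were separated by off-chip mobility shift, and the product ratio P/(P+S) gave percent inhibition.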

T2 sequence (P09619 with tags, fused parts or gaps): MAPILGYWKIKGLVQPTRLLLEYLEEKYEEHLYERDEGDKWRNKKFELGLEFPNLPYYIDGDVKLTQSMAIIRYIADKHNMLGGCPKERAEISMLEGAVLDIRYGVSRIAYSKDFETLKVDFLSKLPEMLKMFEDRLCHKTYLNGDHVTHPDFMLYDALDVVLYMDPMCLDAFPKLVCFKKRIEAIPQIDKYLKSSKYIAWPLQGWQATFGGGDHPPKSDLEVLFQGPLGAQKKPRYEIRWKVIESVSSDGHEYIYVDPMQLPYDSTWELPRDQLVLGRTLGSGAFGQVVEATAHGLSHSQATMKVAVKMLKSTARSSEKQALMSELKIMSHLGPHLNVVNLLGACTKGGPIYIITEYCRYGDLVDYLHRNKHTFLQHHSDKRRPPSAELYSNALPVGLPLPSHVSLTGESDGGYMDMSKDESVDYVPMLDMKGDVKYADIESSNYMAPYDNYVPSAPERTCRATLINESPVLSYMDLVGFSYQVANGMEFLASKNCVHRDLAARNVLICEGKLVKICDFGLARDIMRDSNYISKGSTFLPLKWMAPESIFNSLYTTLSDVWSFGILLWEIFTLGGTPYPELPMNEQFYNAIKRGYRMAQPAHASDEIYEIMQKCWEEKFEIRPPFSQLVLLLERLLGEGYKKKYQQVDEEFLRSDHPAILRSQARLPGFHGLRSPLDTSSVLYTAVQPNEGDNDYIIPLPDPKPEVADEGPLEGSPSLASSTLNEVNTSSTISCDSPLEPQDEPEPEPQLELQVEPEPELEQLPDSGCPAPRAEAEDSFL
T1 sequence (P16234 550-1089 T674I): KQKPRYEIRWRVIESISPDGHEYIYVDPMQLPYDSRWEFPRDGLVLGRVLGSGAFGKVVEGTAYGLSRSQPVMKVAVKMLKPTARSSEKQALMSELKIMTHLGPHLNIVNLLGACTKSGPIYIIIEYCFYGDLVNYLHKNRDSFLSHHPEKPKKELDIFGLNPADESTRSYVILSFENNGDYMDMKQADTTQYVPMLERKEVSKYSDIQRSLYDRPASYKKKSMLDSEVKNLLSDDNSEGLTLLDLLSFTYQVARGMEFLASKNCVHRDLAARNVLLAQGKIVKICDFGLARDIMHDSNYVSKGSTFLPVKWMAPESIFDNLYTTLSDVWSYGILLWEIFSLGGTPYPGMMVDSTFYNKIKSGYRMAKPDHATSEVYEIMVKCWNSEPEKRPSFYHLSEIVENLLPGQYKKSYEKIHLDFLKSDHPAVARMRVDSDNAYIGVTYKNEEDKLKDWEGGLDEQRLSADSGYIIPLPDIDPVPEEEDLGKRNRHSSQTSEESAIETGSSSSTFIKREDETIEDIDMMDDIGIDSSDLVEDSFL

SMILES | pIC50 [1] | pIC50 [2]
C[C@H](Nc1cnc2cnn(C)c2n1)c1cc(NC(=O)c2cnn(C3CCC3)c2)ccc1F [Compound 213, (S)-1-cyclobutyl-N-(4-fluoro-3-(1-((1-methyl-1H-pyrazolo[3,4-b]pyrazin-6-yl)amino)ethyl)phenyl)-1H-pyrazole-4-carboxamide] | > 6.52 | > 6.52
CCn1cc2ncc(N[C@@H](C)c3cccc(NC(=O)c4cnc(COC)s4)c3)nc2n1 [Compound 338, (S)-N-(3-(1-((2-ethyl-2H-pyrazolo[3,4-b]pyrazin-6-yl)amino)ethyl)phenyl)-2-(methoxymethyl)thiazole-5-carboxamide] | > 6.52 | 6.00 to 6.52
CCn1cc2ncc(N[C@@H](C)c3cccc(NC(=O)c4ccc(C(F)(F)F)cc4)c3)nc2n1 [Compound 453, (S)-N-(3-(1-((2-ethyl-2H-pyrazolo[3,4-b]pyrazin-6-yl)amino)ethyl)phenyl)-4-(trifluoromethyl)benzamide] | > 6.52 | > 6.52
COc1ccc(Cn2ccc3ncc(N[C@@H](C)c4cccc(NC(=O)c5cncc(C)c5)c4)cc32)cc1OC [Compound 81, (S)-N-(3-(1-((1-(3,4-dimethoxybenzyl)-1H-pyrrolo [3,2-b]pyridin-6-yl)amino)ethyl)phenyl)-5-methylnicotinamide] | ≤ 6.00 | ≤ 6.00
CCn1cc2ncc(N[C@@H](C)c3cccc(NC(=O)c4cnc(Br)s4)c3)nc2n1 [Compound 324, (S)-2-bromo-N-(3-(1-((2-ethyl-2H-pyrazolo[3,4-b]pyrazin-6-yl)amino)ethyl)phenyl)thiazole-5-carboxamide] | > 6.52 | 6.00 to 6.52
Cc1cncc(C(=O)Nc2cccc([C@H](C)Nc3cnc4cnn(C5CCC5)c4n3)c2)c1 [Compound 178, (S)-N-(3-(1-((1-cyclobutyl-1H-pyrazolo[3,4-b]pyrazin-6-yl)amino)ethyl)phenyl)-5-methylnicotinamide] | > 6.52 | > 6.52
CCOc1ncc(C(=O)Nc2cccc([C@H](C)Nc3cnc4cn(CC)nc4n3)c2)s1 [Compound 362, (S)-2-ethoxy-N-(3-(1-((2-ethyl-2H-pyrazolo[3,4-b]pyrazin-6-yl)amino)ethyl)phenyl)thiazole-5-carboxamide] | > 6.52 | 6.00 to 6.52
CCn1cc2ncc(N[C@@H](C)c3cccc(NC(=O)c4ccc(CN5CC6(CN(C)C6)C5)c(C)c4)c3)nc2n1 [Compound 473, (S)-N-(3-(1-((2-ethyl-2H-pyrazolo[3,4-b]pyrazin-6-yl)amino)ethyl)phenyl)-3-methyl-4-((6-methyl-2,6-diazaspiro[3.3]heptan-2-yl)methyl)benzamide] | > 6.52 | > 6.52
CCn1cc2ncc(N[C@@H](C)c3cccc(NC(=O)c4ccc(N5CCN(C)CC5)c(C(F)(F)F)c4)c3)nc2n1 [Compound 436, (S)-N-(3-(1-((2-ethyl-2H-pyrazolo[3,4-b]pyrazin-6-yl)amino)ethyl)phenyl)-4-(4-methylpiperazin-1-yl)-3-(trifluoromethyl)benzamide] | > 6.52 | > 6.52
CCn1cc2ncc(N[C@@H](C)c3cccc(NC(=O)c4cnc(OC(C)C)c(Cl)c4)c3)nc2n1 [Compound 354, (S)-5-chloro-N-(3-(1-((2-ethyl-2H-pyrazolo[3,4-b]pyrazin-6-yl)amino)ethyl)phenyl)-6-isopropoxynicotinamide] | > 6.52 | > 6.52
Cc1cncc(C(=O)Nc2cccc([C@H](C)Nc3cnc4cn[nH]c4n3)c2)c1 [Compound 90, (S)-N-(3-(1-((1H-pyrazolo[3,4-b]pyrazin-6-yl)amino)ethyl)phenyl)-5-methylnicotinamide] | > 6.52 | > 6.52
CCn1cc2ncc(N[C@@H](C)c3cccc(NC(=O)c4ccc(CN5[C@@H]6CC[C@H]5CN(C)C6)c(C)c4)c3)nc2n1 [Compound 475, N-(3-((S)-1-((2-ethyl-2H-pyrazolo[3,4-b]pyrazin-6-yl)amino)ethyl)phenyl)-3-methyl-4-(((1R,5S)-3-methyl-3,8-diazabicyclo[3.2.1]octan-8-yl)methyl)benzamide] | > 6.52 | > 6.52
CCn1cc2ncc(N[C@@H](C)c3cccc(NC(=O)c4cncc(C)c4)c3)cc2n1 [Compound 11, (S)—N-(3-(1-((2-ethyl-2H-pyrazolo[4,3-b]pyridin-6-yl)amino)ethyl)phenyl)-5-methylnicotinamide] | > 6.52 | > 6.52
Cc1ncc(C(F)(F)F)cc1C(=O)Nc1cccc([C@H](C)Nc2cnc3cnn(C)c3n2)c1 [Compound 126, (S)-2-methyl-N-(3-(1-((1-methyl-1H-pyrazolo[3,4-b]pyrazin-6-yl)amino)ethyl)phenyl)-5-(trifluoromethyl) nicotinamide] | 6.00 to 6.52 | ≤ 6.00
CCn1cc2ncc(N[C@@H](C)c3cccc(NC(=O)c4ccc(CN5CCCC5)nc4)c3)nc2n1 [Compound 388, (S)-N-(3-(1-((2-ethyl-2H-pyrazolo[3,4-b]pyrazin-6-yl)amino)ethyl)phenyl)-6-(pyrrolidin-1-ylmethyl) nicotinamide] | ≤ 6.00 | ≤ 6.00
CCn1cc2ncc(N[C@@H](C)c3cccc(NC(=O)c4cnc(NC5CC5)c(C)c4)c3)nc2n1 [Compound 352, (S)-6-(cyclopropylamino)-N-(3-(1-((2-ethyl-2H-pyrazolo[3,4-b]pyrazin-6-yl)amino)ethyl)phenyl)-5-methylnicotinamide] | > 6.52 | 6.00 to 6.52
C[C@H](Nc1cnc2cnn(C)c2n1)c1cccc(NC(=O)c2cnn(CC3CC3)c2)c1 [Compound 152, (S)-1-(cyclopropylmethyl)-N-(3-(1-((1-methyl-1H-pyrazolo[3,4-b]pyrazin-6-yl)amino)ethyl)phenyl)-1H-pyrazole-4-carboxamide] | > 6.52 | > 6.52

More lines, now with the values ahead:

pIC50 [1] | pIC50 [2] | SMILES
> 6.52 | > 6.52 | CCn1cc2ncc(N[C@@H](C)c3cccc(NC(=O)c4ccc(CN5CC6(COC6)C5)c(C5CC5)c4)c3)nc2n1 [Compound 505, (S)-4-((2-oxa-6-azaspiro[3.3]heptan-6-yl)methyl)-3-cyclopropyl-N-(3-(1-((2-ethyl-2H-pyrazolo[3,4-b]pyrazin-6-yl)amino)ethyl)phenyl)benzamide]
> 6.52 | ≤ 6.00 | CCn1cc2ncc(N[C@@H](C)c3cccc(NC(=O)Cc4cc(C)c(C)cn4)c3)nc2n1 [Compound 693, (S)-2-(4,5-dimethylpyridin-2-yl)-N-(3-(1-((2-ethyl-2H-pyrazolo[3,4-b]pyrazin-6-yl)amino)ethyl)phenyl)acetamide]
> 6.52 | > 6.52 | C[C@H](Nc1cnc2cc(C(F)F)sc2n1)c1cc(NC(=O)c2ccc(C(F)(F)F)nc2)ccc1F [Compound 618, (S)-N-(3-(1-((6-(difluoromethyl)thieno[2,3-b]pyrazin-3-yl)amino)ethyl)-4-fluorophenyl)-6-(trifluoromethyl)nicotinamide]
> 6.52 | > 6.52 | CCn1cc2ncc(N[C@@H](C)c3cc(NC(=O)Cc4cncc(C)c4)ccc3C)nc2n1 [Compound 666, (S)-N-(3-(1-((2-ethyl-2H-pyrazolo[3,4-b]pyrazin-6-yl)amino)ethyl)-4-methylphenyl)-2-(5-methylpyridin-3-yl) acetamide]
> 6.52 | 6.00 to 6.52 | Cc1cncc(C(=O)Nc2cccc([C@H](C)Nc3cnc4ccoc4c3)c2)c1 [Compound 604, (S)-N-(3-(1-(furo[3,2-b]pyridin-6-ylamino)ethyl)phenyl)-5-methylnicotinamide]
> 6.52 | > 6.52 | CCn1cc2ncc(N[C@@H](C)c3cc(NC(=O)Cc4cccc(Cl)c4)ccc3F)nc2n1 [Compound 635, (S)-2-(3-chlorophenyl)-N-(3-(1-((2-ethyl-2H-pyrazolo[3,4-b]pyrazin-6-yl)amino)ethyl)-4-fluorophenyl)acetamide]
> 6.52 | ≤ 6.00 | CCn1cc2ncc(N[C@@H](C)c3cccc(NC(=O)Cc4ccc(C)c(C)n4)c3)nc2n1 [Compound 716, (S)-2-(5,6-dimethylpyridin-2-yl)-N-(3-(1-((2-ethyl-2H-pyrazolo[3,4-b]pyrazin-6-yl)amino)ethyl)phenyl)acetamide]
> 6.52 | 6.00 to 6.52 | CCn1cc2ncc(N[C@@H](C)c3cccc(NC(=O)c4ccc(CN5C[C@@H](C)O[C@@H](C)C5)c(C)c4)c3)nc2n1 [Compound 478, 4-(((2S,6R)-2,6-dimethylmorpholino)methyl)-N-(3-((S)-1-((2-ethyl-2H-pyrazolo[3,4-b]pyrazin-6-yl)amino)ethyl)phenyl)-3-methylbenzamide]
> 6.52 | 6.00 to 6.52 | CCn1cc2ncc(N[C@@H](C)c3cccc(NC(=O)c4ccc(CN5CCC6(CC5)COC6)c(C)c4)c3)nc2n1 [Compound 480, (S)-4-((2-oxa-7-azaspiro[3.5]nonan-7-yl)methyl)-N-(3-(1-((2-ethyl-2H-pyrazolo[3,4-b]pyrazin-6-yl)amino)ethyl)phenyl)-3-methylbenzamide]
> 6.52 | > 6.52 | Cc1cc2ncc(N[C@@H](C)c3cc(NC(=O)c4ccc(OC(F)F)nc4)ccc3F)nc2s1 [Compound 611, (S)-6-(difluoromethoxy)-N-(4-fluoro-3-(1-((6-methylthieno[2,3-b]pyrazin-3-yl)amino)ethyl)phenyl) nicotinamide]
> 6.52 | > 6.52 | C[C@H](Nc1cnc2[nH]cc(-c3cnn(C)c3)c2n1)c1cccc(NC(=O)c2cnc(C3CC3)s2)c1 [Compound 578, (S)-2-cyclopropyl-N-(3-(1-((7-(1-methyl-1H-pyrazol-4-yl)-5H-pyrrolo[2,3-b]pyrazin-2-yl)amino)ethyl)phenyl)thiazole-5-carboxamide]
> 6.52 | > 6.52 | CCn1cc2ncc(N[C@@H](C)c3cc(NC(=O)Cc4cc(F)ccc4F)ccc3C)nc2n1 [Compound 702, (S)-2-(2,5-difluorophenyl)-N-(3-(1-((2-ethyl-2H-pyrazolo[3,4-b]pyrazin-6-yl)amino)ethyl)-4-methylphenyl)acetamide]
